From ChEMBL document CHEMBL1201862, “PubChem BioAssay data set” (2004)
Activity calls are given as the source filed them.

Columns and labels:
[1] = cells; assay type: functional, cell-based
[2] = target: T1, Delta-type opioid receptor (Homo sapiens, UniProt P41143); assay: HTS Image-Based Screen for Agonists of the DOR Receptor. [Related pubchem assays (depositor defined):AID1777, AID1786, AID2133]; assay type: functional
[3] = target: T2, Kappa-type opioid receptor (Homo sapiens, UniProt P41145); assay type: functional
[4] = inhibitors of firefly luciferase expression or activity, dose response, H4 neuroglioma cells, luminescence (AID 1990); assay type: functional, cell-based
[5] = tested on: BJ; assay: cytotoxicity toward BJ-TERT-LT-ST fibroblasts, dose response, cell-based, RAS-independent, luminescence (AID 1935); assay type: functional; conditions: Homo sapiens;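 further: BJ fibroblasts immortalized with TERT plus LT and ST oncogenes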
[6] = tested on: INS1; assay: beta cell apoptosis inhibitors, cytokine rescue, dose response, luminescence, retest (AID 449756); assay type: functional, cell-based; conditions: Rattus norvegicus;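 further: cell death triggered by IL-1 beta plus TNF-alpha plus IFN-gamma mixture; protective hits raise ATP signal compared with cytokine alone wells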
[7] = target: Beta-galactosidase (Escherichia coli, UniProt Q8VNN2); assay type: functional
[8] = cells; assay type: functional, cell-based; remark: listed apart in the source
[9] = tested on: BJ; assay: cells; assay type: functional, cell-based; conditions: Homo sapiens
[10] = tested on: BJ; assay: cytotoxicity toward BJ-TERT fibroblasts, dose response, cell-based, RAS-independent, luminescence (AID 1933); assay type: functional; conditions: Homo sapiens
[11] = target: T3, Sentrin-specific protease 6 (Homo sapiens, UniProt Q9GZR1); assay type: functional;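 further: Luminescence-based dose-response confirmatory assay of SENP6 inhibition, following up an ultra-high-throughput screen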
T3 sequence (Q9GZR1 whole entry): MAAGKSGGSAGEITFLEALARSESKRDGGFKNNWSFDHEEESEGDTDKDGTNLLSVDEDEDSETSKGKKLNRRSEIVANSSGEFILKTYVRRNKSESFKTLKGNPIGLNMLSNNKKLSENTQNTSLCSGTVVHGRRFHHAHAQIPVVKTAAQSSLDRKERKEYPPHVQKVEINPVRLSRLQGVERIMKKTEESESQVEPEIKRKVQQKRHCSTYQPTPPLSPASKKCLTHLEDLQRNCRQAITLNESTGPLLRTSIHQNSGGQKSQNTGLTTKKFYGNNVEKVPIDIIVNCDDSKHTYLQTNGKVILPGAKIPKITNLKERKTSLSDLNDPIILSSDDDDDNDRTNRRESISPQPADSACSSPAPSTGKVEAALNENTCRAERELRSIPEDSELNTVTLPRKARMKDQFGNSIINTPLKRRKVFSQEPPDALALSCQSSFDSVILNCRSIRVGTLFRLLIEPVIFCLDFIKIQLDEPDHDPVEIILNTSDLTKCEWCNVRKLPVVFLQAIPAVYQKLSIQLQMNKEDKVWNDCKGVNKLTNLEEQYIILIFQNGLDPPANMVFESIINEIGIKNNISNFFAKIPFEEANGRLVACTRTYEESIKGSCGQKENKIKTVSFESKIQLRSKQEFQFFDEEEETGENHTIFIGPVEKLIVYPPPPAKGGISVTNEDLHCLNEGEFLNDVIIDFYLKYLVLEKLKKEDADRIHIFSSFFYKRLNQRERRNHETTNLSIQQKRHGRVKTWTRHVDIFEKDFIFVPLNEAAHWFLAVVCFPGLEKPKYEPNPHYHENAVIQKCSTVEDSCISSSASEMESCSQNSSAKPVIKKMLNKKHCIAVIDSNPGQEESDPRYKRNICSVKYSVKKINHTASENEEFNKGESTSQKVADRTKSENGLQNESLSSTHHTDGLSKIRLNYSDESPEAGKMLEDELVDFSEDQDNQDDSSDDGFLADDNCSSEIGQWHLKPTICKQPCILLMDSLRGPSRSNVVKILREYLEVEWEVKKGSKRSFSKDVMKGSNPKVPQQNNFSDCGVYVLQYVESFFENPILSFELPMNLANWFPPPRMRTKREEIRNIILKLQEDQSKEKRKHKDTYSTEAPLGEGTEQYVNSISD

[12] = cytotoxicity toward DRD oncogenic fibroblasts, dose response, cell-based, non-viral oncogenic, luminescence (AID 1934); assay type: functional; conditions: Homo sapiens
[13] = target: Mu-type opioid receptor (Homo sapiens, UniProt P35372); assay: HTS Image-Based Screen for Agonists of the MOR Receptor. [Related pubchem assays (depositor defined):AID1777, AID1785, AID1786, AID2133]; assay type: functional;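 further: imaging of beta-arrestin GFP recruitment into spots after receptor activation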
[14] = target: T1, Delta-type opioid receptor; assay: HTS Image-Based Screen for Antagonists of the DOR Receptor. [Related pubchem assays (depositor defined):AID1777, AID1785, AID1786, AID2133]; assay type: functional
[15] = Luminescence Cell-Based Dose Response HTS to Identify Inhibitors of 5'UTR Stem-Loop Driven Prion Protein mRNA Translation in H4 Neuroglioblastoma Cells. [Related pubchem assays: 1827 (Project Summary), 1813 (Primary HTS)]; assay type: functional
[16] = target: T4, Sentrin-specific protease 7 (Homo sapiens, UniProt Q9BQF6); assay type: functional;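 further: Luminescence-based dose-response confirmation of ultra-high-throughput screening hits, measuring inhibition of SENP7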
T4 sequence (Q9BQF6 whole entry): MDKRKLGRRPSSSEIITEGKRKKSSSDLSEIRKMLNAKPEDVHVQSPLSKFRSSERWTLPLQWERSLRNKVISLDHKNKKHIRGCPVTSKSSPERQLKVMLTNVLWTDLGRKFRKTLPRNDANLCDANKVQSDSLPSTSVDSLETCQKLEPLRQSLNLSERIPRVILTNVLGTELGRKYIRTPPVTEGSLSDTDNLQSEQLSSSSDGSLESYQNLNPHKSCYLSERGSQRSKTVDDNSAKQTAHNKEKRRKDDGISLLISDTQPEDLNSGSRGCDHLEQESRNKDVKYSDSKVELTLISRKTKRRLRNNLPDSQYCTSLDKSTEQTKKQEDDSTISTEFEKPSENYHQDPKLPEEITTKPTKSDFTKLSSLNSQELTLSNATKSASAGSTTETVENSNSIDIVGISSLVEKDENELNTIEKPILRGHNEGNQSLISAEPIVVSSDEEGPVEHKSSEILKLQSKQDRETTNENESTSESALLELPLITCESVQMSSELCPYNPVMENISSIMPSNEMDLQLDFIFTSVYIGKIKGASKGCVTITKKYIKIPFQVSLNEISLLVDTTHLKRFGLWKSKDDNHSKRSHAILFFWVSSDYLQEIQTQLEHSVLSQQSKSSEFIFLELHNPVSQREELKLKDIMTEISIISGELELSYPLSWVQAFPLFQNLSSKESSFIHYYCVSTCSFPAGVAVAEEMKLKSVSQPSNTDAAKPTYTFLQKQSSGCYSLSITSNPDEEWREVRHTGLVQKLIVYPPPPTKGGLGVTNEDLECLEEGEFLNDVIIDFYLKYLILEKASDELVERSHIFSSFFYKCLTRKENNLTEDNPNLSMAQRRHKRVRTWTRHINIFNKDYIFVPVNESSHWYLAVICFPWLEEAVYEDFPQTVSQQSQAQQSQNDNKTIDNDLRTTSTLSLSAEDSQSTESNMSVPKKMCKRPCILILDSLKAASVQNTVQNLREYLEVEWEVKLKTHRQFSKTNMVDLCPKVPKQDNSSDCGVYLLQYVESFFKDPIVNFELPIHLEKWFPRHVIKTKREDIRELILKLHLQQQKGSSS

[17] = target: T5, Caspase-3 (Homo sapiens, UniProt P42574); assay type: functional;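 further: Dose-response selectivity test against caspase-3 for candidate inhibitors of sentrin-specific proteases (SENPs)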
T5 sequence (P42574 whole entry): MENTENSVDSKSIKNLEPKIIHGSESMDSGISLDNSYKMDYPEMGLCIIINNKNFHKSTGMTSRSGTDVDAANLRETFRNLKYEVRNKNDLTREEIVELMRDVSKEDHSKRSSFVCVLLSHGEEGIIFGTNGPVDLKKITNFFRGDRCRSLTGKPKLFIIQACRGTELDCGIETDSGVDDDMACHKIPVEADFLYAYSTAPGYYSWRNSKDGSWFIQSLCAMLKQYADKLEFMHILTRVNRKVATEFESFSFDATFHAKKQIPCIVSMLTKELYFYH

[18] = target: T2, Kappa-type opioid receptor; assay type: functional; remark: listed apart in the source
[19] = target: T6, Sentrin-specific protease 8 (Homo sapiens, UniProt Q96LD8); assay type: functional;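 further: luminescence read-out of SENP8 inhibition, dose-response confirmation following an ultra-high-throughput screen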
T6 sequence (Q96LD8 whole entry): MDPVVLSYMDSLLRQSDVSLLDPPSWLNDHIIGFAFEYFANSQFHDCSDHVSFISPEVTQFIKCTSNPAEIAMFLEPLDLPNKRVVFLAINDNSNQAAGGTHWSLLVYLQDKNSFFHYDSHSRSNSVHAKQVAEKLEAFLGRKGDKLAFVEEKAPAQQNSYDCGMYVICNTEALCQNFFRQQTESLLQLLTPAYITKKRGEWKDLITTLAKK

[20] = Luminescence-based dose response cell-based high throughput screening assay for cytotoxic compounds using the IEC-6 intestinal epithelial cell line. [Related pubchem assays: 1858 (Summary AID.), 1825 (Counterscreen.), 1907 (Confirmation screen.)]; assay type: functional
[21] = inhibitors of SNCA 5'UTR-driven reporter translation, confirmation, H4 neuroglioma cells, luminescence (AID 1988); assay type: functional, cell-based
[22] = target: Peroxisome proliferator-activated receptor gamma/Nuclear receptor coactivator 2 (Homo sapiens, UniProt P37231); assay: (§1) TR-FRET dose response biochemical High Throughput Screening assay for agonists of the steroid receptor coactivator 2 (SRC-2) recruitment by the peroxisome proliferator-activated receptor gamma (PPAR gamma): non-selective agonists. [Related pubchem assays: 1297, 1032 ]; assay type: functional
[23] = target: Peroxisome proliferator-activated receptor gamma/Nuclear receptor coactivator 1 (Homo sapiens, UniProt P37231); assay: as §1, with “1 (SRC-1)” for “2 (SRC-2)”, “assays (depositor defined):AID1300, AID1808, AID504735, AID631]” for “assays: 1297, 1032 ]”; assay type: protein assay
[24] = target: Peroxisome proliferator-activated receptor gamma/Nuclear receptor coactivator 3 (Homo sapiens, UniProt P37231); assay: as §1, with “3 (SRC-3)” for “2 (SRC-2)”, “1301 (Confirmation screen.), 1048 (Primary screen.)]” for “1297, 1032 ]”; assay type: functional
[25] = target: T7, Coagulation factor XII (Homo sapiens, UniProt P00748); assay: Factor XIIa Dose Response Confirmation from Single Well HTS. [Related pubchem assays (depositor defined):AID701]; assay type: functional
T7 sequence (P00748 whole entry): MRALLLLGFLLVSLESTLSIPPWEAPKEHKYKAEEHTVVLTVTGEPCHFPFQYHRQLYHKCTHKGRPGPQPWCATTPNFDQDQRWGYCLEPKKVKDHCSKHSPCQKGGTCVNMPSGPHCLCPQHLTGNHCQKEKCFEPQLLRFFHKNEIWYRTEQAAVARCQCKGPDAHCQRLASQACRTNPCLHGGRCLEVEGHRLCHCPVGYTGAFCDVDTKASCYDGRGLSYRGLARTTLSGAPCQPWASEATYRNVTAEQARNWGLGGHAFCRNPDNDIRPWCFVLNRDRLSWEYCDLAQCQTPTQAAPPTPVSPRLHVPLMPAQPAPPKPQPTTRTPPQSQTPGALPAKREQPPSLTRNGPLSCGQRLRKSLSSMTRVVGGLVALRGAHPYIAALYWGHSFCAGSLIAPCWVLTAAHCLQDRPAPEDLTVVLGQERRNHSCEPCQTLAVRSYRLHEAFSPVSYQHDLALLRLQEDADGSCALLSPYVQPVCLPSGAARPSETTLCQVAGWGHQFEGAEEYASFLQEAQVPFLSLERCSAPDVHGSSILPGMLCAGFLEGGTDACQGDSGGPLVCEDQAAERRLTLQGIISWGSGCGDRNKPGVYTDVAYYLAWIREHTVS

[26] = target: Intestinal-type alkaline phosphatase (Mus musculus, UniProt P24822); assay: mouse intestinal alkaline phosphatase activators, dose response, biochemical, luminescence, uHTS hits (AID 488783); assay type: functional
[27] = target: T8, Alkaline phosphatase, tissue-nonspecific isozyme (Homo sapiens, UniProt P05186); assay: TNAP enzyme activators, dose response, selectivity assay for mouse IAP activator project, biochemical, TNAP isozyme, mouse IAP uHTS hits (AID 488880); assay type: functional
T8 sequence (P05186 whole entry): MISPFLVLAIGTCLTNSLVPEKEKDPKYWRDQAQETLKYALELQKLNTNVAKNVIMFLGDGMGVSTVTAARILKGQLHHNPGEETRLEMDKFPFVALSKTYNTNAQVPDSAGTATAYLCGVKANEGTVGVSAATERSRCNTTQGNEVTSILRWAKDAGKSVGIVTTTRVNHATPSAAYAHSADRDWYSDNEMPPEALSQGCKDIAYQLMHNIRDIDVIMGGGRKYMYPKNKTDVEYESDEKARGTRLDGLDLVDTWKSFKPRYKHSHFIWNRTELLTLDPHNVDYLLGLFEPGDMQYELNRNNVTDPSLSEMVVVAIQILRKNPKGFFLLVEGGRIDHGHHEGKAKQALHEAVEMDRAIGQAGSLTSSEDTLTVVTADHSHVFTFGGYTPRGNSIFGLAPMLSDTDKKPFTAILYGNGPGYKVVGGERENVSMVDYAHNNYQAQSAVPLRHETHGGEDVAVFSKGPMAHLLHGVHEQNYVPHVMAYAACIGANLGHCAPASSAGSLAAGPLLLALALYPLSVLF

[28] = target: Intestinal-type alkaline phosphatase (Homo sapiens, UniProt P09923); assay: activation of human intestinal alkaline phosphatase – biochemical, dose response (AID 488873); assay type: functional

T1 sequence (P41143 whole entry): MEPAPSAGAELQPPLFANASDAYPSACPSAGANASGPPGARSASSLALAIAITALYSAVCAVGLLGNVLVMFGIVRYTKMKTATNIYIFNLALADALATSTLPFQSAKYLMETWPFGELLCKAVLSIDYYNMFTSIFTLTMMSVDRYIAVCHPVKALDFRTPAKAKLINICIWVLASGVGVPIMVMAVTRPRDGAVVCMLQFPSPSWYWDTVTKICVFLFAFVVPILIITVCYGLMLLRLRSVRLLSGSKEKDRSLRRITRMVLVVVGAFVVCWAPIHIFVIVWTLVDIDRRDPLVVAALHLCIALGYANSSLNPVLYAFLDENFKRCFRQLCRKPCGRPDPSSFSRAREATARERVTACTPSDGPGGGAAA
T2 sequence (P41145 whole entry): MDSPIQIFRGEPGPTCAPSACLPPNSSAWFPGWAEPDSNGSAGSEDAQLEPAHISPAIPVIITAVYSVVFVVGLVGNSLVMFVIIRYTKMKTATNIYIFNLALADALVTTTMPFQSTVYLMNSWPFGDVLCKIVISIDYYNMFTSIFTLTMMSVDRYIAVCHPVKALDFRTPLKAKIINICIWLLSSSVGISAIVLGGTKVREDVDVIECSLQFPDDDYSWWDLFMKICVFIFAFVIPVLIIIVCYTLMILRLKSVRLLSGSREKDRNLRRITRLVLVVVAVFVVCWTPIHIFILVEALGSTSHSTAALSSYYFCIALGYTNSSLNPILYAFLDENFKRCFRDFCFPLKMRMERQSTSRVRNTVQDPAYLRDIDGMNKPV
Sequence of Peroxisome proliferator-activated receptor gamma/Nuclear receptor coactivator 1 (P37231 whole entry): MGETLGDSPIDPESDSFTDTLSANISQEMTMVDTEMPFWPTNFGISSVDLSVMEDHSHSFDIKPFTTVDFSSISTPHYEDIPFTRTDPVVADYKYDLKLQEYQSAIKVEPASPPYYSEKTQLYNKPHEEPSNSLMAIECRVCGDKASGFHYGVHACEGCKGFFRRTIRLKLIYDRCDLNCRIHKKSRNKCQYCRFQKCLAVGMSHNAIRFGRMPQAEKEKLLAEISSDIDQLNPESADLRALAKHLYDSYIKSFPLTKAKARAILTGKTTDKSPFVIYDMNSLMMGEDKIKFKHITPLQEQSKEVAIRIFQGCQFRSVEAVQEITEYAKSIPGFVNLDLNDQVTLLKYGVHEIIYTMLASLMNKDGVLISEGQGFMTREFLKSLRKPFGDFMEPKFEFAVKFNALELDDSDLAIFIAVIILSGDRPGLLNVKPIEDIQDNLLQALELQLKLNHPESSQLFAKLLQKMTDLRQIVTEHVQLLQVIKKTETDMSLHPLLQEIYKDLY
Sequence of Peroxisome proliferator-activated receptor gamma/Nuclear receptor coactivator 1 (Q15788 whole entry, further chain): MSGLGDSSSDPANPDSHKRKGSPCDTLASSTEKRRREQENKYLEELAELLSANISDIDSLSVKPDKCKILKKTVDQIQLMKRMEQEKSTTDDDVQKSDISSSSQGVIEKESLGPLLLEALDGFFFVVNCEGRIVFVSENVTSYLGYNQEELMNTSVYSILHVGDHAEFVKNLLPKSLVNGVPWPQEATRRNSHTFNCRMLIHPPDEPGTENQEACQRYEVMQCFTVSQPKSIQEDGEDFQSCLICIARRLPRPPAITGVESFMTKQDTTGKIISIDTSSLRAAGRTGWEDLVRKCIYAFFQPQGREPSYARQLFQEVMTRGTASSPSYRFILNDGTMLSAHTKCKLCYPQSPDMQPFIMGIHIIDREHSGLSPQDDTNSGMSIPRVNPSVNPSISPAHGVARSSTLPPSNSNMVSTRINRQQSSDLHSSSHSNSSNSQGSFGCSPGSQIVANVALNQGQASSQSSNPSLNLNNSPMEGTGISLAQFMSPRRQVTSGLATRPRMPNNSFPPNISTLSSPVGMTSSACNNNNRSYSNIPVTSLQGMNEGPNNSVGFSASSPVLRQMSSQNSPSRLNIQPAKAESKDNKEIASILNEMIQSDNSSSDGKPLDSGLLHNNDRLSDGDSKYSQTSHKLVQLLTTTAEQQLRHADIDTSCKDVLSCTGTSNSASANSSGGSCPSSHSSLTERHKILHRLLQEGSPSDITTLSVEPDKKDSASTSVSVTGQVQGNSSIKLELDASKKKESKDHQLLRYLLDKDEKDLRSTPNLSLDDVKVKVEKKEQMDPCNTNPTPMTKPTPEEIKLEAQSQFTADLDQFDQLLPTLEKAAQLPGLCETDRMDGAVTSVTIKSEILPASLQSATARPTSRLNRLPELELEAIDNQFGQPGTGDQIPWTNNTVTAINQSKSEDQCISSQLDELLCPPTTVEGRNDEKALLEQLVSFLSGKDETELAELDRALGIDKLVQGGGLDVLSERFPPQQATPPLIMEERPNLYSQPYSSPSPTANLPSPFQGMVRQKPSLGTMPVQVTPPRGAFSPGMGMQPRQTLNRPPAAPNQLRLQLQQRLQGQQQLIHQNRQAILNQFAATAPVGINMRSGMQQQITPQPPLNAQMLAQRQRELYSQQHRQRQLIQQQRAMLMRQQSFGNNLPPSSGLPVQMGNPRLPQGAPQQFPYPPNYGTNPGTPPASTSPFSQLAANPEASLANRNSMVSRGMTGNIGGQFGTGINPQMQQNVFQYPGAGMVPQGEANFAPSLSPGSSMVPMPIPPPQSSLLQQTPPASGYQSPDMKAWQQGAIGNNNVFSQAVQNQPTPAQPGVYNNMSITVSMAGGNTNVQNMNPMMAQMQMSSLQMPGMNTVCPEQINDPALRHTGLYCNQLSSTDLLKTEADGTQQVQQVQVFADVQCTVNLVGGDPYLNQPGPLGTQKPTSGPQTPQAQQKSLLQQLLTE
Sequence of Peroxisome proliferator-activated receptor gamma/Nuclear receptor coactivator 2 (P37231 whole entry): as the sequence (P37231 whole entry) above
Sequence of Peroxisome proliferator-activated receptor gamma/Nuclear receptor coactivator 2 (Q15596 whole entry, further chain): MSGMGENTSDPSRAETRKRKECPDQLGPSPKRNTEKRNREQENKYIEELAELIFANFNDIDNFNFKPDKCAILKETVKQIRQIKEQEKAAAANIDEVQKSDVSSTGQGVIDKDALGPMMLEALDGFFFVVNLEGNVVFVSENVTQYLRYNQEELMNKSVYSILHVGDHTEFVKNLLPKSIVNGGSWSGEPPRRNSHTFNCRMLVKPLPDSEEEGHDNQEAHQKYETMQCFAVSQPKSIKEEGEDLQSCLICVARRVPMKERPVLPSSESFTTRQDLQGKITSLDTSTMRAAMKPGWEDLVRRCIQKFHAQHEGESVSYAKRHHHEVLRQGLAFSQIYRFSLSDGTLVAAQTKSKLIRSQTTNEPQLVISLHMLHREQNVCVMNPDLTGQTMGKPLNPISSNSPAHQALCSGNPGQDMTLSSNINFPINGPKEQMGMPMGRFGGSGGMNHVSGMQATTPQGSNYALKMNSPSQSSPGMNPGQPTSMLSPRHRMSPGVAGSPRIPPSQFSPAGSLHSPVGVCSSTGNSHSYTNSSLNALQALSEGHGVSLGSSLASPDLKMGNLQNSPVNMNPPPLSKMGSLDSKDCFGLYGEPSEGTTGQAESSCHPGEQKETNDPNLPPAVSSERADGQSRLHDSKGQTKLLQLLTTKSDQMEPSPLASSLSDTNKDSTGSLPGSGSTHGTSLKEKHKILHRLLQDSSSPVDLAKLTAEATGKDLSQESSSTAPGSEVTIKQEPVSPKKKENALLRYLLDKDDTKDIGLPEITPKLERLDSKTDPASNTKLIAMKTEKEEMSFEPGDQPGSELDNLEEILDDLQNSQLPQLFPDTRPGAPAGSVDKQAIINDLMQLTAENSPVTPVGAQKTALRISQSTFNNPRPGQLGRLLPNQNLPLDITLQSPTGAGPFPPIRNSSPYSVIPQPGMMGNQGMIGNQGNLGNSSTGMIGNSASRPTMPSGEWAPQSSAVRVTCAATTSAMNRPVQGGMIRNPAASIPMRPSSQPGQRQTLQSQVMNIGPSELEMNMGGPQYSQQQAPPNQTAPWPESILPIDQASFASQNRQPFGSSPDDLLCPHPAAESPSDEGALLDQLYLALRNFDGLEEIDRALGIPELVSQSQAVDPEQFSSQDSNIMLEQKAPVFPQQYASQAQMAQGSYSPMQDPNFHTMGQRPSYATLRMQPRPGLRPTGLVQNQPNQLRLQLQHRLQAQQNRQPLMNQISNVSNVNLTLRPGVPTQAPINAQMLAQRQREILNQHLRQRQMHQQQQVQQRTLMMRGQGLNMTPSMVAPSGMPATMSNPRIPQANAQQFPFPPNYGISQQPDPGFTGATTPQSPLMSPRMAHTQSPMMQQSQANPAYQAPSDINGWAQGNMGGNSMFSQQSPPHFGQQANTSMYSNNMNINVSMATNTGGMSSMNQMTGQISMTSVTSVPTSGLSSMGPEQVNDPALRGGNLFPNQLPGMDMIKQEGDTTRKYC
Sequence of Mu-type opioid receptor (P35372 whole entry): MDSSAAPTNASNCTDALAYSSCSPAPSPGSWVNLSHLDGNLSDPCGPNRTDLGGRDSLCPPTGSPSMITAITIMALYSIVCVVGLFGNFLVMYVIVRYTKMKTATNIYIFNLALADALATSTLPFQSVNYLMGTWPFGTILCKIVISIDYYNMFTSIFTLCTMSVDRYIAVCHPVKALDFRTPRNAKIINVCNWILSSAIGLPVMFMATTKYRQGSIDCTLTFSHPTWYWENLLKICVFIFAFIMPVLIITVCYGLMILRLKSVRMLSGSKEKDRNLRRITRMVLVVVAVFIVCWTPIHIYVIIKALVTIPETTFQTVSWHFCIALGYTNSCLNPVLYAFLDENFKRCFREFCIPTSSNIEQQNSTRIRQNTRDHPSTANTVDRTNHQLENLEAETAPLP

COc1cccc2sc(Nc3nc(-c4ccccn4)cs3)nc12
EC50 [1]: 64.5 µM (active) | EC50 [2]: > 32 µM (inactive) | IC50 [3]: > 32 µM | EC50 [4]: 84.1 µM (active) | EC50 [5]: 8.02 µM (inconclusive) | AC50 [6]: 1.17 µM (active) | EC50 [7]: > 31.5 µM (inactive) | EC50 [8]: 6.91 µM (active) | EC50 [9]: 12.2 µM (active) | EC50 [10]: 12.3 µM (inconclusive) | IC50 [11]: 6.04 µM (active) | EC50 [12]: 17.5 µM (inconclusive) | EC50 [13]: > 32 µM (inactive) | IC50 [14]: > 32 µM (inactive) | EC50 [15]: 0.126 µM (active) | IC50 [16]: 4.38 µM (active) | IC50 [17]: 31.7 µM (active) | IC50 [18]: 1.62 µM (active) | IC50 [19]: > 100 µM (inactive) | IC50 [20]: 1.4 µM (active) | EC50 [21]: 2.23 µM (active)

O=C(CCSc1nnc2ccc3ccccc3n12)Nc1ccc(F)cc1
EC50 [22]: 20.9 µM (not active) | EC50 [23]: 24.3 µM (inactive) | EC50 [24]: > 79.4 µM (not active) | IC50 [25]: > 50 µM (inactive)

Nc1cc2nc3ccccc3oc-2cc1=O
EC50 [26]: 64.1 µM (active) | EC50 [27]: 74.5 µM (active) | EC50 [28]: 72.1 µM (active)
